Reference: PubChem BioAssay AID2060910 (Molecular Pharmacology Branch, DTP, NCI, 2025)

System: 242566-281-R-J2-PDC complex spheroid viability
Assay: Anticancer human tumor 242566-281-R-J2-PDC patient-derived pancreatic carcinoma cell line growth inhibition [RAS]
Conditions: for viability, T/C: stronger effect = lower value
Text: RAS pathway inhibitors in Combinations in Complex Spheroids
A high-throughput screen of multi-cell type tumor spheroids was designed to identify active combinations of RAS pathway inhibitors and targeted small molecules. Complex spheroids include a stromal component modeled by human endothelial cells (HUVEC) and fibroblasts modeled by human mesenchymal stem cells (MSCs). The concentration ranges selected for each drug and investigational agent were based upon clinically achievable concentrations if the clinical Cmax of the agent was known.
Compounds. The drugs and investigational agents: abemaciclib (NSC768073), cobimetinib (NSC768068), divarasib (GDC6063, NSC841802), docetaxel (NSC628503), GDC-1971 (RLY-1971, NSC841576), gemcitabine (NSC613327), inavolisib (NSC800729), ipatasertib (NSC767898), KB-0742 (NSC834161), MRTX-1133 (NSC836407), osimertinib (NSC779217), RMC-4630 (NSC839698), RMC-6236 (NSC851965), RMC-6291 (NSC852671), Ro-3306 (NSC812927), sapanisertib (NSC764658), SN-38 (NSC673596), staurosporine (NSC755774), SY5609 (NSC837396), and tovorafenib (DAY101, NSC766906), were obtained from the National Cancer Institute (NCI) Developmental Therapeutics Program Chemical Repository. The FDA-approved anticancer drug set is available from the NCI Developmental Therapeutics Program. […] The stock solutions were prepared in dimethyl sulfoxide (DMSO, Sigma-Aldrich, St. Louis, MO, cat. D2650) at 800-fold the tested concentration and stored at -70 degrees C prior to their use. All drugs and investigational agents were tested over a range starting from a high concentration at or near the clinical Cmax and decreasing in half-log increments. If the clinical Cmax for an agent had not been determined, the highest concentration tested was 10 microM.
Cell Culture. All cells were maintained in an incubator at 37 degrees C and 5% CO2 with 95% humidity. The PDC lines were cultured according to standard operating procedures established by the NCI PDMR. All PDCs were thawed and cultured in Matrigel-coated flasks prepared with a working solution of 1X Ham's F-12 nutrient mix, without supplementation (Invitrogen, Waltham, MA, cat. 11765054), 100 U/mL penicillin-streptomycin (Invitrogen, cat. 15140122), and 2.5% Matrigel (Corning Inc., Corning, NY, cat. 354248) for the first three passages. The 362531-283-R-J2-PDC and 782815-120-R-J1-PDC lines were cultured in 6C/Colon 1B media, which includes advanced DMEM/F-12 (Thermo Fisher Scientific, cat. 12634028), 10 mM HEPES (Thermo Fisher Scientific, cat. 15630080), 1X GlutaMAX supplement (Thermo Fisher Scientific, cat. 35050061), 0.1 mg/mL primocin (InvivoGen, San Diego, CA, cat. ant-pm-2), 10% defined fetal bovine serum, heat inactivated (HyClone Laboratories Inc., Logan, UT, cat. SH30070.03HI), 50% L-WRN conditioned media (ATCC, cat. CRL-3276), 1.25 mM N-Acetyl-L-cysteine (Sigma-Aldrich, cat. A9165), 10 mM nicotinamide (Sigma-Aldrich, cat. N0636), 1X B-27 supplement (Thermo Fisher Scientific, cat. 17504044), 1X N-2 supplement (Thermo Fisher Scientific, cat. 17502048), 50 ng/mL human EGF (Thermo Fisher Scientific, cat. PHG0311), and 10 microM Y-27632 dihydrochloride (Tocris Bioscience, cat. 1254). The K12877-001-R-J1-PDC line was cultured in 6I media, which includes all 6C/Colon 1B media plus 10 ng/mL human FGF-10 (PeproTech, cat. 100-26), 1 ng/mL human FGF-2 (PeproTech, cat. 100-18B), 1 µM prostaglandin E2 (Tocris Bioscience, cat. 2296), […] hydrocortisone (Sigma-Aldrich, cat. H4001), and […] bovine insulin (Sigma-Aldrich, cat. I6634). The K86415-001-R-J1-PDC line was cultured in 6D media, which includes all 6C/Colon 1B media components minus the L-WRN conditioned media. The 485176-168-R4-J1-PDC was cultured in PANC media, which includes all 6C/Colon 1B media plus 100 ng/mL human FGF-10 (PeproTech, cat. 100-26), 500 nM SB-431542 (Selleckchem, cat. S1067), and 10 nM gastrin (Tocris Bioscience, cat. 3006). […]

[1] = curve of first compound, second compound 0.000949 µM
[2] = curve of first compound, second compound 0.003 µM
[3] = curve of first compound, second compound 0.00949 µM
[4] = curve of first compound, second compound 0.03 µM
[5] = curve of first compound, second compound 0.0949 µM
[6] = curve of first compound, second compound 0.3 µM
[7] = second compound 0.000949 µM, first compound 0.00316 µM
[8] = second compound 0.000949 µM, first compound 0.01 µM
[9] = second compound 0.000949 µM, first compound 0.0316 µM
[10] = second compound 0.000949 µM, first compound 0.1 µM
[11] = second compound 0.000949 µM, first compound 0.316 µM
[12] = second compound 0.000949 µM, first compound 1 µM
[13] = second compound 0.003 µM, first compound 0.00316 µM
[14] = second compound 0.003 µM, first compound 0.01 µM
[15] = second compound 0.003 µM, first compound 0.0316 µM
[16] = second compound 0.003 µM, first compound 0.1 µM
[17] = second compound 0.003 µM, first compound 0.316 µM
[18] = second compound 0.003 µM, first compound 1 µM
[19] = second compound 0.00949 µM, first compound 0.00316 µM
[20] = second compound 0.00949 µM, first compound 0.01 µM
[21] = second compound 0.00949 µM, first compound 0.0316 µM
[22] = second compound 0.00949 µM, first compound 0.1 µM
[23] = second compound 0.00949 µM, first compound 0.316 µM
[24] = second compound 0.00949 µM, first compound 1 µM
[25] = second compound 0.03 µM, first compound 0.00316 µM
[26] = second compound 0.03 µM, first compound 0.01 µM
[27] = second compound 0.03 µM, first compound 0.0316 µM
[28] = second compound 0.03 µM, first compound 0.1 µM
[29] = second compound 0.03 µM, first compound 0.316 µM
[30] = second compound 0.03 µM, first compound 1 µM
[31] = second compound 0.0949 µM, first compound 0.00316 µM
[32] = second compound 0.0949 µM, first compound 0.01 µM
[33] = second compound 0.0949 µM, first compound 0.0316 µM
[34] = second compound 0.0949 µM, first compound 0.1 µM
[35] = second compound 0.0949 µM, first compound 0.316 µM
[36] = second compound 0.0949 µM, first compound 1 µM
[37] = second compound 0.3 µM, first compound 0.00316 µM
[38] = second compound 0.3 µM, first compound 0.01 µM
[39] = second compound 0.3 µM, first compound 0.0316 µM
[40] = second compound 0.3 µM, first compound 0.1 µM
[41] = second compound 0.3 µM, first compound 0.316 µM
[42] = second compound 0.3 µM, first compound 1 µM
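Further: spheroids exposed to compound for 7 days before readout.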
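Wherever viability, T/C is given: 100% = DMSO vehicle control wells.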

With `Nc1ccn(C2OC(CO)C(O)C2(F)F)c(=O)n1` (centres undefined) + CCn1c(-c2cccnc2C(C)OC)c2c3cc(ccc31)N1CCOC(CC(NC(=O)C(C(C)C)N(C)C(=O)C3(F)CCN(C(=O)C#CC(C)(C)N(C)C)CC3)C(=O)N3CCCC(N3)C(=O)OCC(C)(C)C2)C1 the IC50 [1] was 0.053 µM, the IC50 [2] was 0.0722 µM and the IC50 [3] was 0.0901 µM. It also gave an IC50 [4] of 0.0679 µM, an IC50 [5] of 0.0753 µM and an IC50 [6] of 0.0505 µM. For the same compound, the viability, T/C [7] was 114%, the viability, T/C [8] was 88% and the viability, T/C [9] was 50.5%. For the same compound, the viability, T/C [10] was 45.3%, the viability, T/C [11] was 23.3% and the viability, T/C [12] was 11.2%. For the same compound, the viability, T/C [13] was 104%, the viability, T/C [14] was 87.2% and the viability, T/C [15] was 71.2%. For the same compound, the viability, T/C [16] was 42%, the viability, T/C [17] was 21.2% and the viability, T/C [18] was 11.6%. The viability, T/C [19] was 104%, the viability, T/C [20] was 92.3% and the viability, T/C [21] was 81.2%. For the same compound, the viability, T/C [22] was 46.6%, the viability, T/C [23] was 21.6% and the viability, T/C [24] was 13.2%. It also gave a viability, T/C [25] of 101%, a viability, T/C [26] of 96% and a viability, T/C [27] of 68.5%. For the same compound, the viability, T/C [28] was 41.9%, the viability, T/C [29] was 16.4% and the viability, T/C [30] was 12%. It also gave a viability, T/C [31] of 86.4%, a viability, T/C [32] of 87.1% and a viability, T/C [33] of 64.7%. For the same compound, the viability, T/C [34] was 49.2%, the viability, T/C [35] was 14.1% and the viability, T/C [36] was 13.4%. The viability, T/C [37] was 91.7%, the viability, T/C [38] was 81.8% and the viability, T/C [39] was 65.6%. For the same compound, the viability, T/C [40] was 28.4%, the viability, T/C [41] was 15.5% and the viability, T/C [42] was 10.1%.

With `O=C(c1ccc(F)c(F)c1Nc1ccc(I)cc1F)N1CC(O)([C@@H]2CCCCN2)C1` + CCn1c(-c2cccnc2C(C)OC)c2c3cc(ccc31)N1CCOC(CC(NC(=O)C(C(C)C)N(C)C(=O)C3(F)CCN(C(=O)C#CC(C)(C)N(C)C)CC3)C(=O)N3CCCC(N3)C(=O)OCC(C)(C)C2)C1 the IC50 [1] was 0.0963 µM, the IC50 [2] was 0.123 µM and the IC50 [3] was 0.116 µM. The IC50 [4] was 0.119 µM, the IC50 [5] was 0.0907 µM and the IC50 [6] was 0.0521 µM. For the same compound, the viability, T/C [7] was 92.3%, the viability, T/C [8] was 90.8% and the viability, T/C [9] was 51.1%. For the same compound, the viability, T/C [10] was 53.2%, the viability, T/C [11] was 38.9% and the viability, T/C [12] was 19.5%. It also gave a viability, T/C [13] of 87.2%, a viability, T/C [14] of 77.5% and a viability, T/C [15] of 65.7%. The viability, T/C [16] was 52.9%, the viability, T/C [17] was 38.7% and the viability, T/C [18] was 18.9%. It also gave a viability, T/C [19] of 101%, a viability, T/C [20] of 69% and a viability, T/C [21] of 78.5%. For the same compound, the viability, T/C [22] was 51.1%, the viability, T/C [23] was 33.7% and the viability, T/C [24] was 21%. For the same compound, the viability, T/C [25] was 93.3%, the viability, T/C [26] was 89.4% and the viability, T/C [27] was 76.9%. For the same compound, the viability, T/C [28] was 54.9%, the viability, T/C [29] was 29.3% and the viability, T/C [30] was 22.4%. For the same compound, the viability, T/C [31] was 97.9%, the viability, T/C [32] was 88.1% and the viability, T/C [33] was 68%. For the same compound, the viability, T/C [34] was 52%, the viability, T/C [35] was 26.5% and the viability, T/C [36] was 22.1%. The viability, T/C [37] was 87%, the viability, T/C [38] was 75.3% and the viability, T/C [39] was 60.6%. The viability, T/C [40] was 36.9%, the viability, T/C [41] was 24.2% and the viability, T/C [42] was 15.8%.

With `C=CC(=O)Nc1cc(Nc2nccc(-c3cn(C)c4ccccc34)n2)c(OC)cc1N(C)CCN(C)C` the viability, T/C (compound 0.00316 µM) was 105% [middle of 4 runs], the viability, T/C (compound 0.01 µM) was 101% [middle of 4 runs] and the viability, T/C (compound 0.0316 µM) was 90.5% [middle of 4 runs]. For the same compound, the viability, T/C (compound 0.1 µM) was 91.2% [middle of 4 runs] and the IC50 (curve of compound) was > 1 µM.
